Results published in patent publication US20130040912A1, “PIPERAZINOTRIAZINES AS PI3K INHIBITORS FOR USE IN THE TREATMENT ANTIPROLIFERATIVE DISORDERS” (UNIVERSITY OF BASEL, priority 2010, published 2013).
Where two headings read alike, the source gives them in different places.

What was measured:
[1] = target: PI3Kalpha (Homo sapiens, UniProt P42336); assay: in vitro PI3Kalpha inhibition, Kinase Glo assay; format: biochemical; settings: for remaining activity at 0.2 µM: Kinase Glo assay at 200 nM, % remaining activity, the smaller the value, the stronger the inhibition, read-out: In vitro PI3Kα, % remaining activity; for inhibitor activity against PI3K (in words): compared with ZSTK474 (4)
Experimental: (§1) The inhibitor efficacy and the cell permeability of the compounds of the invention are measured by in cell Western inhibition assay on melanoma cell line A2058 and TSC2−/− MEFs cell line. Furthermore, in vitro PI3Kalpha inhibition is measured (Table 1).

[2] = test system: TSC2-/- MEFs cell line; assay: in cell Western inhibition assay on TSC2-/- MEFs cell line; format: cell-based; settings: for activity at 1 µM: in cell Western, the smaller the value, the stronger the inhibition, read-out: TSC2-/- MEFs cell inhibition pS6, % remaining activity; for selectivity to mTOR (in words): compared with ZSTK474 (4)
Experimental: as §1

[3] = test system: melanoma cell line A2058; assay: in cell Western inhibition assay on melanoma cell line A2058; format: cell-based; settings: Homo sapiens, the smaller the value, the stronger the inhibition
Experimental: as §1

[4] = target: PI3Kgamma isoform (Homo sapiens, UniProt P48736); assay: fluorescence correlation spectroscopy binding to PI3Kgamma; settings: binding leads to an increase in diffusion time
Experimental: Fluorophore containing compound 13 can be used as a reference inhibitor by fluorescence correlation spectroscopy experiments in which the binding constants of novel inhibitors are determined. […] When the enzyme is saturated with compound 13, new possible ligands can be tested by observing the release of compound 13. This leads to a decrease in diffusion time.

[5] = read-out: A2058 cell inhibition pPKB/PKB, % remaining activity
[6] = read-out: A2058 cell inhibition pS6, % remaining activity

Chain of PI3Kalpha (P42336 whole entry, species assumed): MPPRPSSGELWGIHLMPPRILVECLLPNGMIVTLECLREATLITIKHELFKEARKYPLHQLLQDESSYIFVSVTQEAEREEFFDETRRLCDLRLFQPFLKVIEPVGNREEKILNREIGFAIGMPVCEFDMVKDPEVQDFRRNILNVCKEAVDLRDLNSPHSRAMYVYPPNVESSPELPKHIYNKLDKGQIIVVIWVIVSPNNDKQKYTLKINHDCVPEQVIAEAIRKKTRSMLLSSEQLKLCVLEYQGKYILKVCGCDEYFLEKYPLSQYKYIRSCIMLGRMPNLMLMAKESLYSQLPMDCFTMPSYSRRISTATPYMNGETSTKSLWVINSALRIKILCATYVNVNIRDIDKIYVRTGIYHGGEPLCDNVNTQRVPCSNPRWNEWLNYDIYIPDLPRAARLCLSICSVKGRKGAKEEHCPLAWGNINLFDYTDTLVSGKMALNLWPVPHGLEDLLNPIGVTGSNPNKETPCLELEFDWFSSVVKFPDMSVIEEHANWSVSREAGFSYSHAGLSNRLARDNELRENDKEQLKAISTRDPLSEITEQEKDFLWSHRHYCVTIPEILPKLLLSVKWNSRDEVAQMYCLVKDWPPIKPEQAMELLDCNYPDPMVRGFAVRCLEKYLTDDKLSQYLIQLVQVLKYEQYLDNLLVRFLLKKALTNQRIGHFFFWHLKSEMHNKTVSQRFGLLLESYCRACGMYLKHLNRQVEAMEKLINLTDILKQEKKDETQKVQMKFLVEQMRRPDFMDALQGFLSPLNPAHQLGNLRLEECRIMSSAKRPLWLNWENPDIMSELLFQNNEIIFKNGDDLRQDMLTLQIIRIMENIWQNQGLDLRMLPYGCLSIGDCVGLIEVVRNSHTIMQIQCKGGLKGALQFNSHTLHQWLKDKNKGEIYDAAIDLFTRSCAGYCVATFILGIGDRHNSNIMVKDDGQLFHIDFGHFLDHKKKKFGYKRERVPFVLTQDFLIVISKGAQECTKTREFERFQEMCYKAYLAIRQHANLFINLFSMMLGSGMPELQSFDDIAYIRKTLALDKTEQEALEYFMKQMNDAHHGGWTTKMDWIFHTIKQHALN
Chain of PI3Kalpha (P27986 whole entry partner, species assumed): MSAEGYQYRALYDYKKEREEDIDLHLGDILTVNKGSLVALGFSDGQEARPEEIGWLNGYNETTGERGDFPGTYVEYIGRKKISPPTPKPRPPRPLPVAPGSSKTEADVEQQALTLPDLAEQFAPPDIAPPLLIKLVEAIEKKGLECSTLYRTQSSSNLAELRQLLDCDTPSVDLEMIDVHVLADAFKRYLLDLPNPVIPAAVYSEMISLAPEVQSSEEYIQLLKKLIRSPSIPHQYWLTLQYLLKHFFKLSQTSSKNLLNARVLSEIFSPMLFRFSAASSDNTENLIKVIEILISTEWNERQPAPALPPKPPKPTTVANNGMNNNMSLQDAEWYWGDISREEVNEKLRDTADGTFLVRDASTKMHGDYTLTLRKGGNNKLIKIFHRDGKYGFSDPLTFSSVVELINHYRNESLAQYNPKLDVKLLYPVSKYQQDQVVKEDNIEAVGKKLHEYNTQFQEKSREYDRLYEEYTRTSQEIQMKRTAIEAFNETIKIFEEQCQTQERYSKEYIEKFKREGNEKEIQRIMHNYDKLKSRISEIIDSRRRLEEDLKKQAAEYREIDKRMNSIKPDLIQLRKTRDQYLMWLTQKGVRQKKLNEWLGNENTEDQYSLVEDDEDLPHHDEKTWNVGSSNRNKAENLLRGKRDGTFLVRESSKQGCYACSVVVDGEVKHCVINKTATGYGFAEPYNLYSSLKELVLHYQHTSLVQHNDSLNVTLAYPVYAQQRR
Chain of PI3Kgamma isoform (P48736 whole entry, the tested form may be a part, canonical isoform): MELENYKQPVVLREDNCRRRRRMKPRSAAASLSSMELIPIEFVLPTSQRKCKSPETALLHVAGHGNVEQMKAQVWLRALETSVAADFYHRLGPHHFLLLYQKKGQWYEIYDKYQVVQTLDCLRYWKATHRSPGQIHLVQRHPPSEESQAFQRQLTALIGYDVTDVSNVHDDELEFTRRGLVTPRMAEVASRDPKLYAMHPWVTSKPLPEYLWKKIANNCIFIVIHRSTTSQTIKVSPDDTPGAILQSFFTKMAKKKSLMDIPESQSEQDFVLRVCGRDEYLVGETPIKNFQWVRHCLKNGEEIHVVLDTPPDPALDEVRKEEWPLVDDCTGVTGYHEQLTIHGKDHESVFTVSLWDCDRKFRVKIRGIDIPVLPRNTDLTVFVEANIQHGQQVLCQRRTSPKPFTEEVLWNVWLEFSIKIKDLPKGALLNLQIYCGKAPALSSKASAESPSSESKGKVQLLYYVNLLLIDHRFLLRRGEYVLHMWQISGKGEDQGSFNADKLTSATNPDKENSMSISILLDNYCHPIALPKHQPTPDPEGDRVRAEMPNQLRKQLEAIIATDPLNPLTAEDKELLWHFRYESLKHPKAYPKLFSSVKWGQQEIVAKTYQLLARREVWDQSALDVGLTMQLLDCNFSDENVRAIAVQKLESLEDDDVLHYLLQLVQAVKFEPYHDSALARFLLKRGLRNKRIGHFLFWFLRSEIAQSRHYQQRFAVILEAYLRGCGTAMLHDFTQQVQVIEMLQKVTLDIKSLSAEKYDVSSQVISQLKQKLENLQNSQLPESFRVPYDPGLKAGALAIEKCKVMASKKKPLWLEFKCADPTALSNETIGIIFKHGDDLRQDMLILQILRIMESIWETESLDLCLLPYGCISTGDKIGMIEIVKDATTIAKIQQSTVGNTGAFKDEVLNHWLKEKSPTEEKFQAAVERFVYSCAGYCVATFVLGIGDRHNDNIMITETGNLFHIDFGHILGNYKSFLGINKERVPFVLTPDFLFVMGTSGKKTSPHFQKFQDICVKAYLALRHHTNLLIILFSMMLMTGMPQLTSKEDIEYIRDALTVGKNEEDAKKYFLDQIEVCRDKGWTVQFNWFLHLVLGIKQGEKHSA

SMILES | remaining activity at 0.2 µM [1] [%] | activity at 1 µM [2] [%] | activity at 1 µM [3, 5] [%] | activity at 1 µM [3, 6] [%] | activity (in words) [1] | inhibitor activity against PI3K (in words) [1] | selectivity to mTOR (in words) [2] | binding to PI3Kgamma isoform (in words) [4]
FC(F)c1nc2ccccc2n1-c1nc(N2CCOCC2)nc(N2CCOCC2)n1 [Compound 4, 4,4′-(6-(2-(Difluoromethyl)-1H-benzo[d]imidazol-1-yl)-1,3,5-triazine-2,4-diyl)dimorpholine, reference compound] | 13 | 37.9 ± 4.21 | 3.63 ± 1.1 | 22.5 ± 0.13 | – | – | – | –
CN1CCN(c2nc(N3CCOCC3)nc(-n3c(C(F)F)nc4ccccc43)n2)CC1 [Compound 5, 4-(4-(2-(Difluoromethyl)-1H-benzo[d]imidazol-1-yl)-6-(4-methylpiperazin-1-yl)-1,3,5-triazin-2-yl)morpholine] | 33 | 67.3 ± 1.26 | 4.13 ± 0.37 | 18.5 ± 1.7 | substantially more active than compound 17 | Increasing of inhibitor activity against PI3K | diminishing of selectivity to mTOR | –
CCS(=O)(=O)N1CCN(c2nc(N3CCOCC3)nc(-n3c(C(F)F)nc4ccccc43)n2)CC1 [Compound 7, 4-(4-(2-(Difluoromethyl)-1H-benzo[d]imidazol-1-yl)-6-(4-(ethylsulfonyl)piperazin-1-yl)-1,3,5-triazin-2-yl)morpholine] | 35 | 104 ± 4.27 | 30.7 ± 1.08 | 56.7 ± 10.6 | – | slightly decreased | notable reduced | –
C=CC(=O)N1CCN(c2nc(N3CCOCC3)nc(-n3c(C(F)F)nc4ccccc43)n2)CC1 [Compound 8, 1-(4-(4-(2-(Difluoromethyl)-1H-benzo[d]imidazol-1-yl)-6-morpholino-1,3,5-triazin-2-yl)piperazin-1-yl)prop-2-en-1-one] | 8 | 95 ± 7.44 | 13 ± 0.01 | 23 ± 4.22 | – | – | – | –
NCCN1CCN(c2nc(N3CCOCC3)nc(-n3c(C(F)F)nc4ccccc43)n2)CC1 [Compound 9, 2-(4-(4-(2-(Difluoromethyl)-1H-benzo[d]imidazol-1-yl)-6-morpholino-1,3,5-triazin-2-yl)piperazin-1-yl)ethanamine] | 50 | 89.9 ± 9.5 | 16.5 ± 0.24 | 30.9 ± 4.06 | – | – | – | –
C=CC(=O)NCCN1CCN(c2nc(N3CCOCC3)nc(-n3c(C(F)F)nc4ccccc43)n2)CC1 [Compound 10, N-(2-(4-(4-(2-(Difluoromethyl)-1H-benzo[d]imidazol-1-yl)-6-morpholino-1,3,5-triazin-2-yl)piperazin-1-yl)ethyl)acrylamide] | 20 | 74.5 ± 5.9 | 3.99 ± 1.18 | 12.7 ± 1.69 | – | – | – | –
CCCCCCN1CCN(c2nc(N3CCOCC3)nc(-n3c(C(F)F)nc4ccccc43)n2)CC1 [Compound 11, 4-(4-(2-(Difluoromethyl)-1H-benzo[d]imidazol-1-yl)-6-(4-hexylpiperazin-1-yl)-1,3,5-triazin-2-yl)morpholine] | 45 | 85.7 ± 5.71 | 85.2 ± 3.71 | 74 ± 10.3 | – | – | – | –
CCOCCN1CCN(c2nc(N3CCOCC3)nc(-n3c(C(F)F)nc4ccccc43)n2)CC1 [Compound 12, 4-(4-(2-(Difluoromethyl)-1H-benzo[d]imidazol-1-yl)-6-(4-(2-ethoxyethyl)piperazin-1-yl)-1,3,5-triazin-2-yl)morpholine] | 42 | 77.1 ± 4.62 | 15.9 ± 2.46 | 24.4 ± 4.34 | – | – | – | –
O=C(CCCCCNC(=O)COc1ccc(/C=C/C2=[N+]3C(=Cc4ccc(-c5cccs5)n4[B-]3(F)F)C=C2)cc1)NCCN1CCN(c2nc(N3CCOCC3)nc(-n3c(C(F)F)nc4ccccc43)n2)CC1 [Compound 13, (E)-3-(4-(2-((6-((2-(4-(4-(2-(Difluoromethyl)-1H-benzo[d]imidazol-1-yl)-6-morpholino-1,3,5-triazin-2-yl)piperazin-1-yl)ethyl)amino)-6-oxohexyl)amino)-2-oxoethoxy)styryl)-5,5-difluoro-7-(thiophen-2-yl)-5H-dipyrrolo[1,2-c:2′,1′-f][1,3,2]diazaborinin-4-ium-5-uide] | 13 | 95.5 ± 9.81 | 47.5 ± 5.48 | 57.3 ± 6.86 | active | – | – | binds to the PI3Kgamma isoform
CN1CCN(c2nc(N3CCOCC3)nc(-n3cnc4ccccc43)n2)CC1 [Compound 17, reference compound] | 83 | 123 ± 5.78 | 122 ± 2.58 | 83 ± 3.31 | – | – | – | –
